From patent US11485725B2, “Derivatives of piperlongumine and uses thereof” (Auransa Inc., priority 2017, dated 2022)

Experiments:
[1] = tested on: HCT116 (colorectal cancer) cells; test: Resazurin-based cell viability assay using colorectal cancer cells; conditions: Homo sapiens, HCT-116, 72 hr incubation
Method: Determination of Potency of Compounds in Cell Viability Assay Using Colorectal Cancer Cells
The blue dye resazurin-based assay was performed to determine cell viability and used according to manufacture protocol (Sigma®). HCT116 (colorectal cancer) cells were seeded in the DMEM medium (10% FBS serum). Approximately 1,500 cells were plated per well in 96 well plates. Cells were allowed to grow at 37° C. for 24 hr in 5% CO2 environment in a humidified incubator. Serially diluted compounds (100 μL) were added to the culture plate after 24 hr. After addition of compounds, plates were incubated for 72 hr. Experiment was terminated at the designated incubation time by replacing the medium with 100 μL of 1 mM of resazurin (Sigma®) prepared in culture medium (DMEM) and were further incubated in culture conditions for 4-6 hours. Fluorescence was recorded using a multimodal plate reader (Biotek Synergy Neo®) at an excitation wavelength of 535 nm and emission wavelength of 590 nm to obtain relative fluorescence units. Data analysis was done by subtracting the background fluorescence (medium blank) value from each reading and then normalizing with the vehicle control (DMSO treated cells) to obtain percent survival/proliferation. IC50 was calculated from percent survival values using GraphPad Prism® (see Table 1).

DU4475 = test: In vitro cell viability assay (CellTiter-Glo, ATP levels), triple negative breast cancer cells; format: cell-based; conditions: Homo sapiens, DU-4475, 168 h, 7-day incubation, CellTiter-Glo, average values; read-out: DU4475 IC50
Method: (§1) In Vitro Cell Viability Assay
(§2) The present disclosure provides a method for inhibiting cell viability, as measured by ATP levels. The method for inhibiting cell viability is drawn to contacting various cancer cells with the compounds described herein at various concentrations. The cancer cell lines were maintained in culture conditions at 37° C. in an atmosphere of 5% CO2 in air. The cells growing in an exponential growth phase were harvested and counted for plating. Compounds were incubated in two cancer cell types representing multiple myeloma (MOLP-8) and triple negative breast cancer (DU4475). Cells were plated at an optimized cell numbers per well in 96-well plates and allowed to attach to the plates overnight at approximately 80% confluency.
(§3) After addition of compounds, plates were incubated for 7-day. At the end of incubation period on day 8, media was removed and replaced with a solution of CellTiter-Glo™ reagent (Promega®) according to protocol. Luminescence was read using an EnVision® multi-label plate reader (Perkin-Elmer®), and signal intensity was calculated relative to positive and negative control wells. Cisplatin was included as the positive control. A dose-response calculation was performed in a non-linear regression fit and by using the Hill equation to calculate a concentration-response curve and 50% inhibitory concentration (IC50) values for each compound.
(§4) The average IC50 values of compounds 1-15 in multiple myeloma (MOLP-8) and triple negative breast cancer (DU4475) cells are shown in Table 1.

MOLP-8 = test: In vitro cell viability assay (CellTiter-Glo, ATP levels), multiple myeloma cells; format: cell-based; conditions: Homo sapiens, MOLP-8, 168 h, 7-day incubation, CellTiter-Glo, average values; read-out: MOLP-8 IC50
Method: as §1, §2, §3, §4

| Structure (SMILES) | IC50 [1] | IC50 (DU4475) | IC50 (MOLP-8) |
| --- | --- | --- | --- |
| O=C(Nc1ccc(F)cc1)N1CCC(/C=C/C(=O)N2CCC=CC2=O)CC1 [Compound 58, N-(4-fluorophenyl)-4-[(1E)-3-oxo-3-(6-oxo-3,6-dihydropyridin-1(2H)-yl)prop-1-en-1-yl]piperidine-1-carboxamide] | 1100 nM | 440 nM | 380 nM |
| CC(C)(C)CN1CCC(/C=C/C(=O)N2CCC=CC2=O)CC1 [Compound 62, (E)-1-(3-(1-neopentylpiperidin-4-yl)acryloyl)-5,6-dihydropyridin-2(1H)-one] | 1730 nM | 580 nM | 310 nM |
| COc1cnc(/C=C/C(=O)N2CCC=CC2=O)nc1 [Compound 63, (E)-1-(3-(5-methoxypyrimidin-2-yl)acryloyl)-5,6-dihydropyridin-2(1H)-one] | 2110 nM | 480 nM | 290 nM |
| O=C1C=CCCN1S(=O)(=O)/C=C/c1ncccn1 [Compound 66, 1-{[(E)-2-(pyrimidin-2-yl)ethenyl]sulfonyl}-5,6-dihydropyridin-2(1H)-one] | 3110 nM | 950 nM | 210 nM |
| O=C1C=CCCN1C(=O)/C=C/C1CCN(c2ncccn2)CC1 [Compound 67, 1-{(2E)-3-[1-(pyrimidin-2-yl)piperidin-4-yl]prop-2-enoyl}-5,6-dihydropyridin-2(1H)-one] | 3400 nM | 960 nM | 760 nM |
| NC(=O)N1CCC(/C=C/C(=O)N2CCC=CC2=O)CC1 [Compound 68, (E)-4-(3-oxo-3-(6-oxo-3,6-dihydropyridin-1(2H)-yl)prop-1-en-1-yl)piperidine-1-carboxamide] | 7380 nM | 1550 nM | 670 nM |
| C/C(=C\c1cnn(C)c1)C(=O)N1CCC=CC1=O [Compound 69, 1-[(2E)-2-methyl-3-(1-methyl-1H-pyrazol-4-yl)prop-2-enoyl]-5,6-dihydropyridin-2(1H)-one] | 14000 nM | 4010 nM | 1980 nM |
| CC1(C)C=CC(=O)N(C(=O)/C=C/C2CCN(C(=O)Nc3ccc(F)cc3)CC2)C1 [Compound 70, (E)-4-(3-(3,3-dimethyl-6-oxo-3,6-dihydropyridin-1(2H)-yl)-3-oxoprop-1-en-1-yl)-N-(4-fluorophenyl)piperidine-1-carboxamide] | 7060 nM | 1750 nM | 1350 nM |
| C/C(=C/C1CCN(C(=O)OC(C)(C)C)CC1)C(=O)N1CCC=CC1=O [Compound 71, (Z)-tert-butyl 4-(2-methyl-3-oxo-3-(2-oxo-5,6-dihydropyridin-1(2H)-yl)prop-1-enyl)piperidine-1-carboxylate] | 13600 nM | 4670 nM | 3910 nM |
| C/C(=C\C1CCN(C(=O)OC(C)(C)C)CC1)C(=O)N1CCC=CC1=O [Compound 72, tert-butyl (E)-4-(2-methyl-3-oxo-3-(6-oxo-3,6-dihydropyridin-1(2H)-yl)prop-1-en-1-yl)piperidine-1-carboxylate] | 10300 nM | 4430 nM | 2670 nM |
| C/C(=C\C1CCN(C(=O)Nc2ccc(F)cc2)CC1)C(=O)N1CCC=CC1=O [Compound 73, (E)-N-(4-fluorophenyl)-4-(2-methyl-3-oxo-3-(6-oxo-3,6-dihydropyridin-1(2H)-yl)prop-1-en-1-yl)piperidine-1-carboxamide] | 4280 nM | 1620 nM | 950 nM |
| O=C1C=CCCN1C(=O)/C=C/C1CCN(c2ccccn2)CC1 [Compound 74, (E)-1-(3-(1-(pyridin-2-yl)piperidin-4-yl)acryloyl)-5,6-dihydropyridin-2(1H)-one] | 2580 nM | 1000 nM | 660 nM |
| Cn1cc(/C=C/S(=O)(=O)N2CCC=CC2=O)cn1 [Compound 75, 1-{[(E)-2-(1-methyl-1H-pyrazol-4-yl)ethenyl]sulfonyl}-5,6-dihydropyridin-2(1H)-one] | 4620 nM | 1600 nM | 860 nM |
| COc1cc(/C=C/S(=O)(=O)N2CCC=CC2=O)cc2c1OCCO2 [Compound 76, 1-{[(E)-2-(8-methoxy-2,3-dihydro-1,4-benzodioxin-6-yl)ethenyl]sulfonyl}-5,6-dihydropyridin-2(1H)-one] | 1850 nM | 1000 nM | 563 nM |
| C/C(=C\C1CCN(CC2CC2)CC1)C(=O)N1CCC=CC1=O [Compound 77, (E)-1-(3-(1-(cyclopropylmethyl)piperidin-4-yl)-2-methylacryloyl)-5,6-dihydropyridin-2(1H)-one] | 7500 nM | 5440 nM | 3340 nM |
| C/C(=C/C1CCN(C(=O)Nc2ccc(F)cc2)CC1)C(=O)N1CCC=CC1=O [Compound 78] | 4850 nM | 1530 nM | 950 nM |
| C/C(=C/C1CCN(CC2CC2)CC1)C(=O)N1CCC=CC1=O [Compound 79, (Z)-1-(3-(1-(cyclopropylmethyl)piperidin-4-yl)-2-methylacryloyl)-5,6-dihydropyridin-2(1H)-one] | 2690 nM | 1910 nM | 1030 nM |
| O=C1C=CCCN1C(=O)/C=C/c1ncc2c(n1)OCCO2 [Compound 80, (E)-1-(3-(6,7-dihydro-[1,4]dioxino[2,3-d]pyrimidin-2-yl)acryloyl)-5,6-dihydropyridin-2(1H)-one] | 3210 nM | 1800 nM | 1150 nM |
| Cc1n[nH]c(C)c1/C=C/C(=O)N1CCC=CC1=O [Compound 81, (E)-1-(3-(3,5-dimethyl-1H-pyrazol-4-yl)acryloyl)-5,6-dihydropyridin-2(1H)-one] | 5100 nM | 2700 nM | 1490 nM |
| O=C(Nc1ccc(F)cc1)N1CCC(/C=C/S(=O)(=O)N2CCC=CC2=O)CC1 [Compound 82, (E)-N-(4-fluorophenyl)-4-(2-((6-oxo-3,6-dihydropyridin-1(2H)-yl)sulfonyl)vinyl)piperidine-1-carboxamide] | 2250 nM | 800 nM | 360 nM |
| Cn1cc(/C=C(/C(=O)N2CCC=CC2=O)c2ccccc2)cn1 [Compound 83, 1-[(2E)-3-(1-methyl-1H-pyrazol-4-yl)-2-phenylprop-2-enoyl]-5,6-dihydropyridin-2(1H)-one] | 11100 nM | 4840 nM | 2750 nM |
| Cn1cc(/C=C(\C(=O)N2CCC=CC2=O)c2ccccc2)cn1 [Compound 84, (Z)-1-(3-(1-methyl-1H-pyrazol-4-yl)-2-phenylacryloyl)-5,6-dihydropyridin-2(1H)-one] | 3710 nM | 1630 nM | 1550 nM |
| Cn1cc(/C=C/C(=O)N2CC(C)(C)C=CC2=O)cn1 [Compound 85, (E)-5,5-dimethyl-1-(3-(1-methyl-1H-pyrazol-4-yl)acryloyl)-5,6-dihydropyridin-2(1H)-one] | 31000 nM | 6790 nM | 4600 nM |
| O=C1C=CCCN1C(=O)/C=C/c1cnn(C2CC2)c1 [Compound 86, (E)-1-(3-(1-cyclopropyl-1H-pyrazol-4-yl)acryloyl)-5,6-dihydropyridin-2(1H)-one] | 3830 nM | 1670 nM | 850 nM |
| C/C(=C/C1CCNCC1)C(=O)N1CCC=CC1=O [Compound 87, (Z)-1-(2-methyl-3-(piperidin-4-yl)acryloyl)-5,6-dihydropyridin-2(1H)-one 2,2,2-trifluoroacetate] | 10100 nM | 5530 nM | 3660 nM |
| C/C(=C\C1CCNCC1)C(=O)N1CCC=CC1=O [Compound 88, (E)-1-(2-methyl-3-(piperidin-4-yl)acryloyl)-5,6-dihydropyridin-2(1H)-one 2,2,2-trifluoroacetate] | 7060 nM | 6560 nM | 3780 nM |
| O=C1C=CCCN1C(=O)/C=C/c1cn[nH]c1 [Compound 89, (E)-1-(3-(1H-pyrazol-4-yl)acryloyl)-5,6-dihydropyridin-2(1H)-one] | 2700 nM | 8410 nM | 3580 nM |
| O=C1C=CCCN1C(=O)/C=C/c1cnn(CC(F)(F)F)c1 [Compound 90, 1 11-{(2E)-3-[1-(2,2,2-trifluoroethyl)-1H-pyrazol-4-yl]prop-2-enoyl}-5,6-dihydropyridin-2(1H)-one] | 7070 nM | 1470 nM | 440 nM |
